In patent US12077503B2, “Substituted cyclic amides and their use as herbicides” (FMC CORPORATION, priority 2015, dated 2024):

What was measured:
Assay type in all cases: in vivo
rice (Oryra sativa) = assay: Test B flooded paddy test; conditions: Flood, 250 g ai/ha; 0 to 100 scale where 0 is no effect and 100 is complete control; 13 to 15 d
Procedure, shortened: (§1)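 Evaluation by eye, against controls, occurred 13–15 d post-treatment in a greenhouse, using a 0 (no effect) to 100 (complete control) scale. Application was into the paddy water, 3 cm deep over the soil, on 2-leaf plants.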

[1] = tested on: barnyardgrass (Echinochloa crus-galli); assay: Test B flooded paddy test; conditions: Flood, 250 g ai/ha; 0 to 100 scale where 0 is no effect and 100 is complete control; 13 to 15 d
Procedure, shortened: as §1

[2] = tested on: sedge, umbrella (small-flower umbrella sedge, Cyperus difformis); assay: Test B flooded paddy test; conditions: Flood, 250 g ai/ha; 0 to 100 scale where 0 is no effect and 100 is complete control; 13 to 15 d
Procedure, shortened: as §1

[3] = tested on: ducksalad (Heteranthera limosa); assay: Test B flooded paddy test; conditions: Flood, 250 g ai/ha; 0 to 100 scale where 0 is no effect and 100 is complete control; 13 to 15 d
Procedure, shortened: as §1

[4] = tested on: pigweed (Amaranthus retroflexus); assay: Test A preemergence; conditions: for Plant response rating, Pigweed: 125 g ai/ha; for Pigweed plant response rating (0 to 100 scale, 0 is no effect, 100 is complete control): 500 g ai/ha, visual injury approx. 10 d
[5] = tested on: giant foxtail (Setaria faberii); assay: Test A preemergence; conditions: for Plant response rating, Foxtail, Giant: 125 g ai/ha; for Foxtail, Giant plant response rating (0 to 100 scale, 0 is no effect, 100 is complete control): 500 g ai/ha, visual injury approx. 10 d
Procedure, shortened: (§2)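 Seeds sprayed preemergence with a directed soil spray, or plants at 2 to 10 cm height and one- to two-leaf stage sprayed postemergence, with test chemicals in a non-phytotoxic solvent mixture containing surfactant, in loam soil–sand blend. Injury rated visually against untreated controls after about 10 d in greenhouse, 0 (no effect) to 100 (complete control).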

[6] = tested on: barnyardgrass (Echinochloa crus-galli); assay: Test A preemergence; conditions: for Plant response rating, Barnyardgrass: 125 g ai/ha; for Barnyardgrass plant response rating (0 to 100 scale, 0 is no effect, 100 is complete control): 500 g ai/ha, visual injury approx. 10 d
Procedure, shortened: as §2

Kochia (Kochia scoparia) [7] = assay: Test A preemergence; conditions: for Plant response rating, Kochia: 125 g ai/ha; for Kochia plant response rating (0 to 100 scale, 0 is no effect, 100 is complete control): 500 g ai/ha, visual injury approx. 10 d
Procedure, shortened: as §2

[8] = tested on: ryegrass, Italian (Italian ryegrass, Lolium multiflorum); assay: Test A preemergence; conditions: for Plant response rating, Ryegrass, Italian: 125 g ai/ha; for Ryegrass, Italian plant response rating (0 to 100 scale, 0 is no effect, 100 is complete control): 500 g ai/ha, visual injury approx. 10 d
Procedure, shortened: as §2

[9] = tested on: ragweed (common ragweed, Ambrosia elatior); assay: Test A preemergence; conditions: for Plant response rating, Ragweed: 125 g ai/ha; for Ragweed plant response rating (0 to 100 scale, 0 is no effect, 100 is complete control): 500 g ai/ha, visual injury approx. 10 d
Procedure, shortened: as §2

[10] = tested on: wheat (Triticum aestivum); assay: Test A postemergence; conditions: for Wheat plant response rating: 125 g ai/ha, visual injury rating on 0 to 100 scale (0 no effect, 100 complete control), approx. 10 d; for Plant response rating, Wheat: 500 g ai/ha
Procedure, shortened: as §2

[11] = tested on: pigweed (Amaranthus retroflexus); assay: Test A postemergence; conditions: for Pigweed plant response rating: 125 g ai/ha, visual injury rating on 0 to 100 scale (0 no effect, 100 complete control), approx. 10 d; for Plant response rating, Pigweed: 500 g ai/ha
Procedure, shortened: as §2

corn (Zea mays) = assay: Test A postemergence; conditions: for Corn plant response rating: 125 g ai/ha, visual injury rating on 0 to 100 scale (0 no effect, 100 complete control), approx. 10 d; for Plant response rating, Corn: 500 g ai/ha
Procedure, shortened: as §2

[12] = tested on: giant foxtail (Setaria faberii); assay: Test A postemergence; conditions: for Foxtail, Giant plant response rating: 125 g ai/ha, visual injury rating on 0 to 100 scale (0 no effect, 100 complete control), approx. 10 d; for Plant response rating, Foxtail, Giant: 500 g ai/ha
Procedure, shortened: as §2

[13] = tested on: barnyardgrass (Echinochloa crus-galli); assay: Test A postemergence; conditions: for Barnyardgrass plant response rating: 125 g ai/ha, visual injury rating on 0 to 100 scale (0 no effect, 100 complete control), approx. 10 d; for Plant response rating, Barnyardgrass: 500 g ai/ha
Procedure, shortened: as §2

Kochia (Kochia scoparia) [14] = assay: Test A postemergence; conditions: for Kochia plant response rating: 125 g ai/ha, visual injury rating on 0 to 100 scale (0 no effect, 100 complete control), approx. 10 d; for Plant response rating, Kochia: 500 g ai/ha
Procedure, shortened: as §2

[15] = tested on: blackgrass (Alopecurus myosuroides); assay: Test A postemergence; conditions: for Blackgrass plant response rating: 125 g ai/ha, visual injury rating on 0 to 100 scale (0 no effect, 100 complete control), approx. 10 d; for Plant response rating, Blackgrass: 500 g ai/ha
Procedure, shortened: as §2

[16] = tested on: ryegrass, Italian (Italian ryegrass, Lolium multiflorum); assay: Test A postemergence; conditions: for Ryegrass, Italian plant response rating: 125 g ai/ha, visual injury rating on 0 to 100 scale (0 no effect, 100 complete control), approx. 10 d; for Plant response rating, Ryegrass, Italian: 500 g ai/ha
Procedure, shortened: as §2

[17] = tested on: Galium (catchweed bedstraw, Galium aparine); assay: Test A postemergence; conditions: for Galium plant response rating: 125 g ai/ha, visual injury rating on 0 to 100 scale (0 no effect, 100 complete control), approx. 10 d; for Plant response rating, Galium: 500 g ai/ha
Procedure, shortened: as §2

[18] = tested on: ragweed (common ragweed, Ambrosia elatior); assay: Test A postemergence; conditions: for Ragweed plant response rating: 125 g ai/ha, visual injury rating on 0 to 100 scale (0 no effect, 100 complete control), approx. 10 d; for Plant response rating, Ragweed: 500 g ai/ha
Procedure, shortened: as §2

[19] = preemergence, 0 to 100 scale (0 no effect, 100 complete control)
[20] = postemergence, 0 to 100 scale, 0 no effect, 100 complete control
[21] = Preemergence, visual injury after approximately 10 d, 0 to 100 scale where 0 is no effect and 100 is complete control
[22] = Postemergence, 0 to 100 scale where 0 is no effect and 100 is complete control

SMILES	Plant response rating, Rice (rice (Oryra sativa))	Plant response rating, Barnyardgrass [1]	Plant response rating, Sedge, Umbrella [2]	Plant response rating, Ducksalad [3]	Pigweed plant response rating (0 to 100 scale, 0 is no effect, 100 is complete control) ([4]; Preemergence)	Foxtail, Giant plant response rating (0 to 100 scale, 0 is no effect, 100 is complete control) ([5]; Preemergence)	Barnyardgrass plant response rating (0 to 100 scale, 0 is no effect, 100 is complete control) ([6]; Preemergence)	Kochia plant response rating (0 to 100 scale, 0 is no effect, 100 is complete control) (Kochia (Kochia scoparia) [7]; Preemergence)	Ryegrass, Italian plant response rating (0 to 100 scale, 0 is no effect, 100 is complete control) ([8]; Preemergence)	Ragweed plant response rating (0 to 100 scale, 0 is no effect, 100 is complete control) ([9]; Preemergence)	Wheat plant response rating ([10]; postemergence)	Pigweed plant response rating ([11]; postemergence)	Corn plant response rating (corn (Zea mays); postemergence)	Foxtail, Giant plant response rating ([12]; postemergence)	Barnyardgrass plant response rating ([13]; postemergence)	Kochia plant response rating (Kochia (Kochia scoparia) [14]; postemergence)	Blackgrass plant response rating ([15]; postemergence)	Ryegrass, Italian plant response rating ([16]; postemergence)	Galium plant response rating ([17]; postemergence)	Ragweed plant response rating ([18]; postemergence)	other results
Cc1cc(C2CNC(=O)C2C(=O)Nc2cccc(F)c2F)ccc1F (stereo not drawn) [Compound 400]	20	65	0	100	60	100	100	80	40	90	30	30	20	50	90	60	60	20	40	40	Plant response rating, Pigweed [4, 19]: 60; Plant response rating, Foxtail, Giant [5, 19]: 90; Plant response rating, Barnyardgrass [6, 19]: 90; Plant response rating, Kochia (Kochia (Kochia scoparia) [7]; [19]): 60; Plant response rating, Ryegrass, Italian [8, 19]: 30; Plant response rating, Ragweed [9, 19]: 70; Plant response rating, Wheat [10, 20]: 70; Plant response rating, Pigweed [11, 20]: 50; Plant response rating, Corn (corn (Zea mays); [20]): 80; Plant response rating, Foxtail, Giant [12, 20]: 70; Plant response rating, Barnyardgrass [13, 20]: 90; Plant response rating, Kochia (Kochia (Kochia scoparia) [14]; [20]): 70; Plant response rating, Blackgrass [15, 20]: 60; Plant response rating, Ryegrass, Italian [16, 20]: 90; Plant response rating, Galium [17, 20]: 60; Plant response rating, Ragweed [18, 20]: 50
O=C(Nc1ccccc1F)C1C(=O)N(CC=CBr)CC1c1cccc(C(F)(F)F)c1 (stereo not drawn) [Compound 484]	0	0	0	0	0	90	40	0	0	0	0	0	0	0	0	0	0	0	0	0	Plant response rating, Pigweed [4, 21]: 0; Plant response rating, Foxtail, Giant [5, 21]: 50; Plant response rating, Barnyardgrass [6, 21]: 0; Plant response rating, Kochia (Kochia (Kochia scoparia) [7]; [21]): 0; Plant response rating, Ryegrass, Italian [8, 21]: 0; Plant response rating, Ragweed [9, 21]: 0; Plant response rating, Wheat [10, 22]: 0; Plant response rating, Pigweed [11, 22]: 0; Plant response rating, Corn (corn (Zea mays); [22]): 0; Plant response rating, Foxtail, Giant [12, 22]: 40; Plant response rating, Barnyardgrass [13, 22]: 50; Plant response rating, Kochia (Kochia (Kochia scoparia) [14]; [22]): 0; Plant response rating, Blackgrass [15, 22]: 0; Plant response rating, Ryegrass, Italian [16, 22]: 0; Plant response rating, Galium [17, 22]: 0; Plant response rating, Ragweed [18, 22]: 0
